≈ marks a conversion by molar mass, not a printed value. Where two headings read alike, the source gives them in different places.
What was measured:
[1] = tested on: Mycobacterium avium Patient Strain (Birk); assay: Minimum inhibiting concentration, M. avium Patient Strain (Birk); format: cell-based; conditions: Mycobacterium avium, M. avium Patient str., read-out: Minimum inhibiting concentration
[2] = tested on: Mycobacterium tuberculosis H 37 RV; assay: Minimum inhibiting concentration, M. tuberculosis H37RV; format: cell-based; conditions: Mycobacterium tuberculosis; M. tub. H37RV
Procedure: The minimum inhibiting concentration of the commercially available and inventive substances given in Table 2 was determined according to the known standard process ("Methods for sensitivity testing of bacterial infectious germs", DIN 58940, part 5).
The determination was carried out on the following bacterial cultures:
2. Mycobacterium tuberculosis H 37 RV, FIB 2-85 JS
For culturing the bacterial cultures use was made of nutrient substrates according to Gottsacker and Lowenstein Jensen and culture media according to Lockemann or Dubos-Davis (cf. "Detection processes for mycobacteria from test material, III, culture medium formulations for culturing tuberculosis bacteria", 1978, Publisher: Deutsches Zentralkomitee zur Bekampfung der Tuberculose, Poppenhusenstrasse 14c, 2000 Hamburg 60).
In each case 5×10^-3 to 5×10^-5 mg, based on the wet weight, of the mycobacterial strains were incubated in 2 ml of culture fluid (Lockemann +0.5 wt/vol. % bovine serum albumen fraction 5) at 31° C. with a graded concentration of the particular inhibitor (dilution series). The culture tubes were read off after 8 to 15 days, as a function of the bacterial strain.
The MIC is the inhibitor concentration in μMol/l at which no propagation of the sewn cells is observed.

[3] = tested on: Mycobacterium marinum SN 1254; assay: Minimum inhibiting concentration, M. marinum SN1254; format: cell-based
Mycobacterium lufu = assay: Minimum inhibiting concentration, M. lufu L 209; format: cell-based; conditions: Mycobacterium lufu
[4] = tested on: Sierra Leone D-6 (parasitic malaria strain); assay: Growth of malaria strain Sierra Leone D-6; format: cell-based; conditions: for IC50: read-out: I50; for IC90: read-out: I90
Description: (§1) Determination of the semimaximum inhibiting concentration (I50) of typical representatives of the inventive compounds for the growth of parasitic malaria strains:
(§2) The determination took place according to the standard process (cf. WHO determination process).
(§3) The process according to Example 35 was repeated with the difference that the semimaximum inhibiting concentration of combinations of the inventive compound PH 22 with (2), (3) inhibitors of dihydrofolic acid reductase, (4) inhibitors of folate synthase and dihydrofolic acid reductase and (5), (6) inhibitors of DNA-synthesis were determined.

[5] = tested on: Indochina W-2 (parasitic malaria strain); assay: Growth of malaria strain Indochina W-2; format: cell-based; conditions: for IC50: read-out: I50; for IC90: read-out: I90
Description: as §1, §2, §3

[6] = tested on: Mycobacterium smegmatis ATCC 607; assay: Minimum inhibiting concentration, M. smegmatis ATCC 607; format: cell-based; conditions: Mycolicibacterium smegmatis
M. leprae [7] = assay: Propagation of M. leprae in mouse paws; format: in vivo; conditions: two months in feed; DDS 0.0001%, Rifampicin 0.001%, K-130 0.01%, Brodimoprim 0.01%, PH 22-26 0.05%
Procedure: The therapeutic action was determined as a reduction of the number of acid-resistant bacteria in the mouse paw according to C. C. Shepard, J. Experim. Met., 112, p. 445, 1960.
It is possible to detect the synergistic effect of the combinations, even under in vivo conditions.

M. leprae [8] = assay: In vitro propagation of M. leprae, thymidine incorporation; format: cell-based; conditions: Mycobacterium leprae, read-out: % Reduction Thymidine incorporation; for inhibition of growth at 10000 µg/mL: 10 mg/ml
Procedure: The inhibiting action was determined as a reaction of the thymidine absorption and the ATP content in M. Leprae suspensions, in the manner described by A. M. Dhople, Med. Sci. Res., 15, p.

[9] = M. marin. SN1254, read-out: Minimum inhibiting concentration
[10] = ATCC607, M. smegm. ATCC 607, read-out: Minimum inhibiting concentration

SMILES	MIC [2] [µM]	MIC [3, 9] [µM]	MIC (Mycobacterium lufu) [µM]	MIC [6, 10] [µM]	other results
Clc1ccc(NN=Cc2ccccn2)nc1 [PH 22-30, pyridine-2-aldehyde-5'-chloro-2'-pyridylhydrazone]	1.3 (≈ 0.302 µg/mL)	5.4 (≈ 1.26 µg/mL)	2.7 (≈ 0.628 µg/mL)		MIC [1]: 13 µM
Clc1cccc(C=NNc2ccccn2)n1 [PH 22-11, 6-chloropyridine-2-aldehyde-2'-pyridylhydrazone]	86 (≈ 20 µg/mL)		43 (≈ 10 µg/mL)	56 (≈ 13 µg/mL)	IC50 [4]: 13.1 µM; IC90 [4]: 25.7 µM; IC50 [5]: 8.9 µM; IC90 [5]: 23 µM
CC(=O)Nc1ccnc(C=NNc2nncc3ccccc23)c1 [PH 22-18, 4-acetylaminopyridine-2-aldehyde-1'-phthalazinylhydrazone]	46 (≈ 14.1 µg/mL)	92 (≈ 28.2 µg/mL)	22.9 (≈ 7.01 µg/mL)	65 (≈ 19.9 µg/mL)	
CC(=NNc1nncc2ccccc12)c1cc(N)ccn1 [PH 22-24, 2-acetyl-4-aminopyridine-1'-phthalazinylhydrazine]	4.5 (≈ 1.25 µg/mL)	18 (≈ 5.01 µg/mL)	2.2 (≈ 0.612 µg/mL)	4.5 (≈ 1.25 µg/mL)	
CN(N=Cc1ccccn1)c1cc(Cl)ncn1 [PH 22-36, pyridine-2-aldehyde-6'-chloro-4'-pyrimidyl-(N1-methyl)-hydrazone]	136 (≈ 33.7 µg/mL)	119 (≈ 29.5 µg/mL)	5.3 (≈ 1.31 µg/mL)		
CC(=NNc1ncnc2ccccc12)c1ccccn1 [PH 22-34, 2-acetylpyridine-4'-quinazolylhydrazone]	12 (≈ 3.16 µg/mL)	64 (≈ 16.9 µg/mL)	< 1		
Cc1ccc(C=NNc2ccc3ccccc3n2)nc1 [PH 22-14, 5-methyl-pyridine-2-aldehyde-2'-quinolylhydrazone]	1.2 (≈ 0.315 µg/mL)	5.7 (≈ 1.5 µg/mL)	3.8 (≈ 0.997 µg/mL)	9.5 (≈ 2.49 µg/mL)	
CC(=O)Nc1ccnc(C=NNc2ccccn2)c1 [PH 22-17, 4-acetylamino-pyridine-2-aldehyde-2'-pyridylhydrazone]	> 125		94 (≈ 24 µg/mL)		MIC ([3]; SN1254, read-out: Minimum inhibiting concentration): > 125 µM; IC50 [4]: 0.6 µM; IC90 [4]: 1.1 µM; IC50 [5]: 0.5 µM; IC90 [5]: 2.3 µM; MIC ([6]; ATCC607, read-out: Minimum inhibiting concentration): > 125 µM
CCc1ccc(C=NNc2cc(OC)ncn2)nc1 [PH 22-33, 5-ethylpyridine-2-aldehyde-6'-methoxy-4'-pyrimidylhydrazone]	2.4 (≈ 0.618 µg/mL)	4.9 (≈ 1.26 µg/mL)	1.5 (≈ 0.386 µg/mL)		
C(=NNc1nccc2ccccc12)c1ccccn1 [PH 22-27, pyridine-2-aldehyde-1'-isoquinolylhydrazone]	8.1 (≈ 2.01 µg/mL)	16.1 (≈ 4 µg/mL)	6 (≈ 1.49 µg/mL)	12.1 (≈ 3 µg/mL)	
Cc1ccc(C=NNc2nncc3ccccc23)nc1 [PH 22-16, 5-methyl-pyridine-2-aldehyde-1'-phthalazinylhydrazone]	1.4 (≈ 0.369 µg/mL)	76 (≈ 20 µg/mL)	4.8 (≈ 1.26 µg/mL)	5.7 (≈ 1.5 µg/mL)	
C(=NNc1ccccn1)c1nccc2ccccc12 [PH 22-37, isoquinoline-1-aldehyde-2'-pyridyl hydrazone]	3 (≈ 0.745 µg/mL)	6 (≈ 1.49 µg/mL)	12.1 (≈ 3 µg/mL)	6 (≈ 1.49 µg/mL)	
CCc1ccc(C=NNc2ccccn2)nc1 [PH 22-13, 5-ethyl-pyridine-2-aldehyde-2'-pyridylhydrazone]	22 (≈ 4.98 µg/mL)	44 (≈ 9.96 µg/mL)	53 (≈ 12 µg/mL)	22 (≈ 4.98 µg/mL)	
Nc1ccnc(C=NNc2nncc3ccccc23)c1 [PH 22-23, 4-aminopyridine-2-aldehyde-1'-phthalazinylhydrazine]	13.3 (≈ 3.52 µg/mL)	38 (≈ 10 µg/mL)	26.5 (≈ 7 µg/mL)	13.3 (≈ 3.52 µg/mL)	
COc1cc(Cc2cnc(N)nc2N)cc(OC)c1Br [Brodimoprim, brodimoprim, reference compound]	94 (≈ 31.9 µg/mL)	18 (≈ 6.11 µg/mL)	80 (≈ 27.1 µg/mL)		MIC ([1]; values marked *): > 100 µg/mL; % Inhibition of propagation of M. leprae in mouse paws (M. leprae [7]): 3%
CC(=O)Nc1ccnc(C(C)=NNc2nncc3ccccc23)c1 [PH 22-20, 4-acetylamino-2-acetylpyridine-1'-phthalazinylhydrazine]	10.9 (≈ 3.49 µg/mL)	88 (≈ 28.2 µg/mL)	12.5 (≈ 4 µg/mL)	15.6 (≈ 5 µg/mL)	
Clc1cccc(NN=Cc2ccccn2)n1 [PH 22-29, pyridine-2-aldehyde-6'-chloro-2'-pyridylhydrazone]	1.6 (≈ 0.372 µg/mL)	6.5 (≈ 1.51 µg/mL)	3.2 (≈ 0.745 µg/mL)		MIC [1]: 60 µM
Nc1ccc(S(=O)(=O)c2ccc(N)cc2)cc1 [DDS, 4,4'-diaminodiphenylsulphone]					inhibition of growth at 5000 µg/mL (M. leprae [8]; 5 mg/ml): 0%; inhibition of growth at 10000 µg/mL (M. leprae [8]): 5%; % Inhibition of propagation of M. leprae in mouse paws (M. leprae [7]): 14%
c1ccc(C(=NNc2nncc3ccccc23)c2ccccn2)cc1 [PH 22-22, 2-benzoylpyridine-1'-phthalazinylhydrazone]	18.5 (≈ 6.02 µg/mL)	10.8 (≈ 3.51 µg/mL)	2.3 (≈ 0.748 µg/mL)	12.3 (≈ 4 µg/mL)	MIC [1]: 86 µM
CC(=NNc1cc(Cl)ncn1)c1ccccn1 [PH 22-32]	6.1 (≈ 1.51 µg/mL)	28.3 (≈ 7.01 µg/mL)	1.3 (≈ 0.322 µg/mL)		
Cc1cccc(C=NNc2ccccn2)n1 [PH 22-10, 6-methyl pyridine-2-aldehyde-pyridylhydrazone]	47 (≈ 9.98 µg/mL)		8.3 (≈ 1.76 µg/mL)	33 (≈ 7 µg/mL)	
CCc1ccc(C=NNc2nncc3ccccc23)nc1 [PH 22-5, 5-ethylpyridine-2-aldehyde-1'-phthalazinylhydrazone]	16.6 (≈ 4.6 µg/mL)	10.4 (≈ 2.88 µg/mL)	14.5 (≈ 4.02 µg/mL)	67 (≈ 18.6 µg/mL)	
CC(=NNc1nncc2ccccc12)c1ccccn1 [PH 22-3, 2-acetylpyridine-1'-phthalazinylhydrazone]	31 (≈ 8.16 µg/mL)	22 (≈ 5.79 µg/mL)	6.6 (≈ 1.74 µg/mL)	44 (≈ 11.6 µg/mL)	MIC [1]: 53 µM
CC(=O)Nc1ccnc(C=NNc2ccc3ccccc3n2)c1 [PH 22-19, 4-acetylaminopyridine-2-aldehyde-2'-quinolylhydrazone]	11.5 (≈ 3.51 µg/mL)	11.5 (≈ 3.51 µg/mL)	32.9 (≈ 10 µg/mL)	9.8 (≈ 2.99 µg/mL)	
C(=NNc1nncc2ccccc12)c1ccc(OCc2ccccc2)cn1 [PH 22-6, 5-benzyloxypyridine-2-aldehyde-1'-phthalazinylhydrazone]	8.5 (≈ 3.02 µg/mL)	7 (≈ 2.49 µg/mL)	5.6 (≈ 1.99 µg/mL)	40 (≈ 14.2 µg/mL)	MIC [1]: 7 µM
COc1cc(Cc2cnc(N)nc2N)cc(OC)c1OCCCNc1ccc(S(=O)(=O)c2ccc(N)cc2)cc1 [K-130, 2,4-diamino-5-{4-[3-(4'-aminophenyl-4-sulphonylphenylamino)-propoxy]-3,5-dimethoxybenzyl}-pyrimidine]					inhibition of growth at 10000 µg/mL (M. leprae [8]): 0%; inhibition of growth at 20000 µg/mL (M. leprae [8]; 20 mg/ml): 65%; % Inhibition of propagation of M. leprae in mouse paws (M. leprae [7]): 56%
CC(O)CN(C)c1ccc(NN=Cc2ccccn2)nn1 (centres unmarked) [PH 22-28, pyridine-2-aldehyde-6'-(N-methyl-N-2"-hydroxypropyl)-amino-3'-pyridazinylhydrazone]	140 (≈ 40.1 µg/mL)	70 (≈ 20 µg/mL)	35 (≈ 10 µg/mL)		
Cc1cccc(NN=Cc2ccccn2)n1 [PH 22-31, pyridine-2-aldehyde-2'-(6'-methyl)-pyridylhydrazone]	1.8 (≈ 0.382 µg/mL)	8.3 (≈ 1.76 µg/mL)	3.5 (≈ 0.743 µg/mL)		MIC [1]: 57 µM
C(=NNc1nncc2ccccc12)c1ccccn1 [PH 22-1, pyridine-2-aldehyde-1'-phthalazinylhydrazone]	49 (≈ 12.2 µg/mL)		12.1 (≈ 3.02 µg/mL)	49 (≈ 12.2 µg/mL)	
Cc1ccnc(C=NNc2nncc3ccccc23)c1 [PH 22-8, 4-methyl-pyridine-2-aldehyde-1'-phthalazinylhydrazone]	18 (≈ 4.74 µg/mL)	22 (≈ 5.79 µg/mL)	31 (≈ 8.16 µg/mL)	44 (≈ 11.6 µg/mL)	

Source: patent US4997835A, “Substituted 2-acylpyridine-α-(N)-hetarlyhydrazones and medicaments containing the same” (priority 1987, dated 1991)
